Data from US9340559B2, “Proteasome inhibitor delanzomib for use in the treatment of lupus” (Cephalon, Inc., priority 2011, dated 2016).

Legend:
Format in all cases: in vivo, mouse
[1] = test system: MRL/lpr mice; assay: Splenomegaly (spleen mass), MRL/lpr mice
Procedure: FIG. 5 depicts splenomegaly for MRL/lpr mice across treatment groups for the study duration. MRL/lpr mice were treated as outlined in the legend. The spleen masses for all mice that survived until the end of the experiment are graphed. Each symbol represents the spleen weight for one mouse at 25 weeks of age.
Mice are tracked on an individual basis.
Vehicle alone is provided orally twice weekly (p.o.). Both proteasome inhibitors are suspended in the vehicle solution. […] In addition, urine proteinuria is determined for all animals.
Vehicle was 3% DMSO/10% Solutol/87% PBS.

[2] = test system: MRL/lpr mice; assay: Urinalysis: total urine protein (proteinuria), MRL/lpr mice
Procedure: Urine samples are acid precipitated for total protein recovery and analysis. Samples for which enough urine remained are used for Uristix® leukouria analysis. Briefly, a standard protein solution is prepared from normal mouse sera and is used as a standard for mouse urinary protein assay by turbidity. Standard preparation is as follows: 0, 5, 10, 15, 20, 30, 40, and 50 μL of a 4 mg/mL mouse sera standard protein solution as provided in the kit are added in duplicate into two columns. PBS is added to individual wells to adjust the final volume to 50 μL. For urine sample preparation, urine samples are centrifuged at 9880×g for 3 minutes using a tabletop micro-centrifuge. Urine supernatant (1-50 μL) is added in duplicate. PBS is added to adjust the volume to 50 μL total. For the turbidity assay: 25 μL of 0.1 N HCl is added into blank columns and 250 μL of 3% sulfosalicyclic acid into the test columns. The microplate is incubated for 10 minutes at RT and plates are read using an ELISA reader with single beam at 450 nm. For the Uristix® strip assay, strips are laid out and labeled. Twenty microliters of urine are placed onto each test strip square and incubated for at least 30 seconds before the result is recorded. For all total urine analysis plate-based assays, values below the limit of detection set by the lowest point along the standard or set by the manufacturer are considered out of range and are not estimated, but assumed the lowest point along the standard curve for that particular assay.

[3] = test system: NZM mice; assay: Survival, NZM lupus nephritis model, ip dosing (Example 2)
[4] = test system: NZM mice; assay: Splenomegaly (spleen mass), NZM mice (Example 2)
[5] = test system: NZM mice; assay: Urinalysis: total urine protein (proteinuria), NZM mice (Example 2)
[6] = test system: NZM mice; assay: Renal histopathology scoring (kidney IC-GN), NZM mice (Example 2)
Procedure: For histological analyses, the left kidney from each animal is removed and fixed in 10% buffered neutral formalin (EMD) for 48 hours on an orbital rocker at 25° C., then washed overnight with running dH2O and stored in 70% ethanol at 4° C. until ready to be processed. Kidney stains used for histological analyses included hematoxylin and eosin (H&E), Periodic Acid Schiff (PAS) and Trichrome stains (Wistar Institute, Philadelphia, Pa.). All 3 stained sections are used by the pathologist for scoring purposes. All histological scoring is performed blinded and by an independent board certified veterinary medical pathologist (Julie Engiles, VMD, DACVP). Multiple stains are used to determine score values. Images in FIG. 39 show worst affected area of section selected blindly by the pathologist.
Kidney IC-GN Scoring Method (Smith, Dong et al. 2007):
1. Glomerular cellularity—Score 1-5: Null, low, moderate, high, severe
2. Glomerular necrosis—Score 1-5: Null, low, moderate, high, severe
3. Glomerulosclerosis—Score 1-5: Null, low, moderate, high, severe
4. Interstitial infiltration—Score 1-5: Null, low, moderate, high, severe
5. Tubular atrophy—Score 1-5: Null, low, moderate, high, severe
6. Interstitial fibrosis—Score 1-5: Null, low, moderate, high, severe
7. Vasculitis—Score 1-5: Null, low, moderate, high, severe
Specific Pathologist Definitions: • Necrosis is defined by the presence of nuclear debris/pyknosis within the glomerular tuft indicative of “necrosis.” In many samples, this is a very mild, rare finding within only a very few segments of the glomerular tuft. Also consider effacement of the glomerular tuft by PAS positive, Trichrome negative material necrosis. • Glomerular sclerosis is defined by increased fibroplasia or fibrosis within the glomerular tuft or capsule. […] Most of the vascular changes are mild and could be considered “arteriosclerosis” characterized by proliferation of the smooth muscle cells, and hyalinization of the extracellular matrix. This change may reflect hypertension secondary to glomerular pathology. In very few animals is there overt “vasculitis.” Most inflammatory changes are within the walls of the blood vessels, with little to no damage to the endothelium, and no overt hemorrhage/fibrin leakage. Many also have perivascular rims of fibroblasts.

## CC(C)C[C@H](NC(=O)[C@H](Cc1ccccc1)NC(=O)c1cnccn1)B(O)O [bortezomib, reference compound]
[1]; G4: 0.5 mg/kg iv, 1× wk
  EOS spleen mass, percent change vs vehicle: −68%
[1]; G5: 0.3 mg/kg iv, 2× wk
  EOS spleen mass, percent change vs vehicle: −44%
[2]; G4: 0.5 mg/kg iv, 1× wk
  Urine AUC proteinuria, percent change vs vehicle: −55%
[2]; G5: 0.3 mg/kg iv, 2× wk
  Urine AUC proteinuria, percent change vs vehicle: −50%
[2]; treated weekly with bortezomib
  proteinuria decrease relative to vehicle: 55%
[3]; G3 0.3 mg/kg ip, 1× wk
  EOS survival, percent live mice from original number: 58%
[3]; G4 0.3 mg/kg ip, 2× wk
  EOS survival, percent live mice from original number: 75%
[3]; both treatment groups of the substance
  mice still alive at day 56: 75%
[4]; G3 0.3 mg/kg ip, 1× wk
  Spleen mass EOS, percent change vs vehicle: +14%
[4]; G4 0.3 mg/kg ip, 2× wk
  Spleen mass EOS, percent change vs vehicle: −19%
[5]; G3 0.3 mg/kg ip, 1× wk
  Urine proteinuria AUC, percent change vs vehicle: 30%
[5]; G4 0.3 mg/kg ip, 2× wk
  Urine proteinuria AUC, percent change vs vehicle: −57%
[6]; G3 0.3 mg/kg ip, 1× wk
  Kidney glomerular cellularity, percent change vs vehicle: −12%
  Kidney glomerular necrosis, percent change vs vehicle: 18%
  Kidney glomerulosclerosis, percent change vs vehicle: 8%
  Kidney interstitial fibrosis, percent change vs vehicle: −5%
  Kidney interstitial infiltration, percent change vs vehicle: −15%
  Kidney tubular atrophy, percent change vs vehicle: −6%
  Kidney vasculitis, percent change vs vehicle: −21%
[6]; G4 0.3 mg/kg 2× wk
  p, interstitial infiltration (II) vs G7 Vehicle: p < 0.05
[6]; G4 0.3 mg/kg ip, 2× wk
  Kidney glomerular cellularity, percent change vs vehicle: −21%
  Kidney glomerular necrosis, percent change vs vehicle: 3%
  Kidney glomerulosclerosis, percent change vs vehicle: −29%
  Kidney interstitial fibrosis, percent change vs vehicle: −22%
  Kidney interstitial infiltration, percent change vs vehicle: −44%
  Kidney tubular atrophy, percent change vs vehicle: −32%
  Kidney vasculitis, percent change vs vehicle: −14%
[6]; bortezomib treatment group (twice weekly dose)
  interstitial infiltration reduction vs vehicle: 44%
[6]; mouse, in vivo
  decrease in renal histopathology score over several parameters vs vehicle: 6-14%
